{"source": "patent EP0551200A1", "about": "“Protein phosphatase inhibitors for use in therapy” (priority 1992, dated 1993)", "key": {"[1]": {"test_system": "EGFR", "test": "Phosphorylation of EGF receptor, immunoprecipitation from 32P-labeled fibroblasts", "format": "cell-based, human", "conditions": "250 nM, 15 min", "method": "Phosphorylation of EGFR by TNF, IL-1, EGF, PDGF (indicated as PGF) and okadaic acid (OA). ³²P-Labeled cultures of fibroblast cells were treated with TNF (100 units/ml), IL-1 (100 units/ml), EGF (50 ng/ml), PDGF (32 ng/ml) or OA (250 nM) for 15 min. Control is indicated by 0. The EGFR was immunoprecipitated with anti-EGFR antibody (Oncogene Science, Manhasset, N.Y., US). The proteins were subjected to 7.5% SDS-PAGE and autoradiography.\nIL-1, TNF, or Okadaic Acid Treatment Stimulate Phosphorylation of the EGF Receptor - One feature of TNF and IL-1 action is the transmodulation of the EGFR via phosphorylation. Okadaic acid was added to human fibroblasts to see if it can also mimic this effect of TNF and IL-1. ³²P-Labeled human fibroblasts were treated with ligand (TNF, IL-1, EGF, PDGF, or okadaic acid) for 15 min and extracted for analysis. The extracts were immunoprecipitated with anti-EGFR antibodies. The immunoprecipitated EGFR derived from variously treated fibroblasts was analyzed by SDS-PAGE and autoradiography."}, "[2]": {"test_system": "Egr-1 mRNA", "test": "Northern blot analysis of Egr-1 mRNA induction in quiescent primary human fibroblasts", "format": "cell-based", "method": "Quiescent human fibroblasts were incubated with TNF (500 units/ml) (a) or OA (500 nM) (b) for 0, 30, 60 min after which total cellular RNA was extracted. Blots of RNA from these cells were hybridized to radiolabeled (10⁶ cpm/ml) Egr-1 cDNA probe. c, the blot in b was stripped and reprobed with c-jun cDNA. Note: Egr-1 mRNA probe was not completely stripped from the blot. The autoradiograph of the blot is presented. d, regularly maintained cells were incubated wither with no additions (control, 0 time) or with OA for 1, 3, 5, 7 h and Northern analysis was carried out with an IL-6 cDNA probe (ATCC, Rockville, MD, US).\n10 µg of RNA was applied to each lane and subjected to Northern blot analysis using an Egr-1 specific cDNA probe [1.6 kb Bgl II fragment (Sukhatme et al, Cell 53, 37-48, 1988)]. The same blots were rehybridized with actin or GADPH cDNA for normalizing the amount of RNA loaded. The blots were dried and autoradiographed. • (A). Time course of okadaic acid-induced Egr-1 and c-jun messages in primary human fibroblasts. Quiescent human fibroblasts were induced with 1 µM of okadaic acid for the time periods indicated. […] Time course of okadaic acid-induced Egr-1 message in Balb/c 3T3 cells. Quiescent Balb/c 3T3 cells were induced with okadaic acid (0.5µM) for the times indicated. • (C). Concentration dependent induction of Egr-1 message by okadaic acid in Balb/c 3T3 cells. Quiescent Balb/c 3T3 cells were induced with the indicated concentrations of okadaic acid for 1 h. As controls, different concentrations of DMSO were included. These corresponded to the amounts present in 0.25 µM okadaic acid (0.025% dimethyl sulphoxide (DMSO)) 0.5 µM okadaic acid (0.05% DMSO) and 1 µM okadaic acid (0.1%). • (D). Concentration dependent and time course induction of Egr-1 message by calyculin A. Quiescent Balb/c 3T3 cells were induced with different concentrations of calyculin A for 1 h. Northern analysis of this dose-dependent induction by calyculin A is shown on the left panel of the figure. […] Northern analysis of this time course induction by calyculin A is shown in the right panel of the figure. The same blot was rehybridized with pCMV-fos (Curran et al, Oncogene 2, 79-84, 1987) and pCMV-jun (Rauscher et al, 1988) shown in the middle panel. The blot was dried and autoradiographed.\nCells were incubated with either 0.5 µM of okadaic acid or 10 µg/ml of cycloheximide as well as with 0.5 µM of okadaic acid and 10 µg/ml of cycloheximide for 1.5, 3 or 6 h. Cells were harvested, RNA isolated and subjected to Northern blot analysis. The blot was probed with Egr-1 or actin cDNA.\nQuiescent primary human fibroblasts were incubated with okadaic acid (OA) or TPA for 1 or 3 h. The concentrations of OA and TPA were 0.5 µM and 120 ng/ml, respectively. The concentration of 1-(5-isoquinolinylsulfonyl)-2-methylpiperazine dihydrochloride (H7) and N-(2-guanidinoethyl)-5-isoquinolinesulphonamide dihydrochloride (HA1004) used was 25 µM. The cells were pre-treated for 15 min with H7 or HA1004 before they were induced by OA or TPA for 1 or 3 h. Cells were harvested, RNA was isolated and subjected to Northern blot analysis. The blot was probed with Egr-1 or GADPH cDNA. • (B). As a positive control, primary human fibroblasts were treated with TPA (30 ng/ml) for 1 h (1st lane). The fibroblasts were also pre-treated with H7 (25 µM) or HA1004 (25 µM) for 15 min before treatment with TPA for 1 h (2nd and 3rd lanes respectively). […] The blot was probed with Egr-1 or actin cDNA. • (C). Quiescent Balb/c 3T3 cells were incubated with OA, TPA or dBt-cAMP for 1 h or pre-treated with H7 (25 µM) or HA1004 (25 µM) for 15 min and then incubated with each of the agonists for 1 h. Cells were harvested, RNA was isolated and subjected to Northern blot analysis. […]"}, "[3]": {"test_system": "human fibroblasts", "test": "Total cellular protein synthesis in human fibroblasts", "format": "cell-based", "conditions": "data not shown", "method": "Quiescent human fibroblasts were stimulated with MEM containing 0.5 µM okadaic acid in the presence or absence of cycloheximide (10 µg/ml) for the times indicated in Fig. 11. […] Treatment of cells with cycloheximide enhanced the induction of Egr-1 mRNA by okadaic acid at 1.5 and 3 h (Fig. 11). Similarly puromycin, like cycloheximide, also \"superinduces\" the induction of the Egr-1 mRNA by okadaic acid (data not shown). […] However, in view that protein phosphatase 1 (PP1) and protein phosphatase 2A (PP2A) regulate enzymes associated with cellular protein synthesis (Cohen, Annu. Rev. Biochem. 58, 453-508, 1989) the effect of okadaic acid on protein synthesis in mouse and human fibroblasts was also measured. […] By then the Egr-1 mRNA message was already induced. A corollary to this is a comparison of the amount of ³⁵S-methionine labelled Egr-1 protein immunoprecipitated by R5232 antibodies from protein phosphatase inhibitor-treated and control cells. […] Thus, the induction of the Egr-1 gene by phosphatase inhibitors is unlikely to be mediated by their late inhibitory effects on cellular protein synthesis."}}, "data": [{"smiles": "C=C1[C@@H](O)[C@@H]2O[C@]3(CC[C@H](/C=C/[C@@H](C)[C@@H]4CC(C)=C[C@@]5(O[C@H](C[C@@](C)(O)C(=O)O)CC[C@H]5O)O4)O3)CC[C@H]2O[C@@H]1[C@@H](O)C[C@H](C)[C@H]1O[C@@]2(CCCCO2)CC[C@H]1C", "note": "[okadaic acid]", "values": [{"measurement": "stimulation of phosphorylation of the EGFR (in words)", "setting": "[1]", "result": "to an even greater extent than does TNF, IL-1, EGF or PDGF"}, {"measurement": "time for which the Egr-1 mRNA level is maintained", "setting": "[2]; 1 µM", "result": "up to 7 h"}, {"measurement": "time of maximal induction of Egr-1 mRNA", "setting": "[2]; 1 µM", "result": "about 2 h"}, {"measurement": "time to induction of Egr-1 mRNA", "setting": "[2]; 1 µM, Example 2", "result": "≤ 1", "unit": "h"}, {"measurement": "fold induction at 1 µM", "setting": "[2]; Homo sapiens, Fibroblast, read-out: Egr-1 mRNA level over control", "result": "30 to 40"}, {"measurement": "time to induction of Egr-1", "setting": "[2]; OA 500 nM, Example 1", "result": "≤ 30", "unit": "min"}, {"measurement": "effect on total cellular protein synthesis (in words)", "setting": "[3]; 0.5 µM, first 2 h", "result": "little measurable effect"}, {"measurement": "inhibition at 0.5 µM", "setting": "[3]; Homo sapiens, Fibroblast, at 4 h", "result": "≤ 50", "unit": "%"}]}]}
